Here are results for 20 molecules from ChEMBL document CHEMBL4420080, “Inhibitors of sox18 protein activity for treating angiogenesis- and/or lymphangiogenesis-related diseases” (2018).

The source made the active and inactive calls. The calls are words filed in the database; no cut-off is given here.

Series [1] can be described thus: Critical micellar concentration of the compound. It counts as physicochemical.
Series [2] in a line: Cytotoxicity in African green monkey COS7 cells assessed as reduction in cell viability incubated for 24 hrs by Alamar blue dye based assay. Set-up: species or system COS-7. As to conditions: chlorocebus aethiops.
A further series deals with 4T1.2. As to the kind of experiment: Antitumor activity against mouse 4T1.2 cells implanted in BALB/c mouse assessed as median disease latency time at 25 mg/kg/day for 10 days (Rvb =33 days). Type of series: functional.
Series [3] deals with T1, Transcription factor SOX-18 (Mus musculus) (UniProt P43680).
T1 sequence (whole entry): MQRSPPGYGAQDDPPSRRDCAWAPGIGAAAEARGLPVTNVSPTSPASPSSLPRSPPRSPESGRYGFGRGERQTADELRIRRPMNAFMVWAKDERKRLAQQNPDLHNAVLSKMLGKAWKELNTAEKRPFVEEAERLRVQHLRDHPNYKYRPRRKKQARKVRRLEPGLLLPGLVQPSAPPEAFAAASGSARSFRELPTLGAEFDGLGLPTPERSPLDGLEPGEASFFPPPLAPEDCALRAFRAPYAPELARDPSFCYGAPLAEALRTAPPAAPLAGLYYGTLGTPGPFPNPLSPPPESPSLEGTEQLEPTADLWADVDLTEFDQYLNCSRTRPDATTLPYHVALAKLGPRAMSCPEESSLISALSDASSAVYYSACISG
In words: Competitive binding affinity to full-length mouse SOX18 expressed in Sf9 cells assessed as reduction in SOX1 8- DNA binding using FAM-labelled Prox1 -DNA element at 1 to 1000 uM incubated for 5 mins in dark at room temperature, 10 mins at 37 degC and 30 mins at room temperature by fluorescence polarization assay. A general note: Polarisation of emitted light reports the rotation of a fluorescent probe.

A short description of series [4]: Cytotoxicity in human HepG2 cells assessed as reduction in cell viability incubated for 24 hrs by Alamar blue dye based assay.
For series [5], the target named is T1, Transcription factor SOX-18 (Mus musculus). As to the kind of experiment: Competitive binding affinity to full-length mouse SOX18 expressed in Sf9 cells assessed as reduction in SOX1 8- DNA binding by measuring FP-bound fraction at 200 uM using FAM-labelled Prox1 -DNA element incubated for 5 mins in dark at room temperature, 10 mins at 37 degC and 30 mins at room temperature by fluorescence polarization assay relative to control. Set-up: scale not given: the % may be the effect or the level left.

For series [6] the target is unchanged. As to the kind of experiment: Competitive binding affinity to full-length mouse SOX18 expressed in Sf9 cells assessed as reduction in SOX1 8- DNA binding by measuring FP-bound fraction at 50 uM using FAM-labelled Prox1 -DNA element incubated for 5 mins in dark at room temperature, 10 mins at 37 degC and 30 mins at room temperature by fluorescence polarization assay relative to control. Further details: scale not given: the % may be the effect or the level left.

Series [7] in a line: Cytotoxicity in HEK293 cells assessed as reduction in cell viability incubated for 24 hrs by Alamar blue dye based assay. Conditions: human.

`COc1ccc(OCC(=O)c2ccc(O)cc2O)cc1` returned a CMC in series [1] of over 1000 µM. Also, in series [2], the CC50 at 24 h is over 200 µM.
For `CC(=O)Oc1ccccc1C(=O)O` [ASPIRIN], the Time with 4T1.2 came to 44 days.
In series [1], `O=C(COc1ccc2ccccc2c1)c1ccc(O)cc1O` gave a CMC of over 1000 µM. Further, the CC50 at 24 h in series [2] worked out at 98.6 µM.
For the molecule `O=C(O)c1ccccc1Nc1cccc(C(F)(F)F)c1`, the outcome in series [3] was Active.
`Cc1cc(O)c(C(=O)O)c(CCc2ccc3ccccc3c2)c1`: the CC50 at 24 h in series [4] is 377 µM.
Take `COc1cc(O)c(C(=O)O)c(C=Cc2ccc3ccccc3c2)c1` (mixture of isomers): the Activity in series [5] came out at 19.8%.
As to `COC(=O)c1c(O)cccc1CCCCC(C)CCCC(C)C` (stereo unspecified), the CMC in series [1] came out at 20 µM.
Regarding `CCN(CC)C(=O)c1c(CCc2ccc3ccccc3c2)cccc1OC`, the Activity in series [5] was determined as 117%; in series [6] it was 100%. Also, the CC50 at 24 h in series [7] is 62.6 µM; in series [4], 38.5 µM.
The molecule `COc1cccc(CCCCCCc2ccccc2)c1C(=O)O` had a CMC in series [1] of over 1000 µM. Also, the CC50 at 24 h in series [2] was over 200 µM.
Take `CCCCCCCCCc1cccc(O)c1C(=O)OC`: the CMC in series [1] was determined as 20 µM.
`CCCCCCCCCc1cccc(OC)c1C(=O)OC` yielded a CMC in series [1] of 20 µM.
For `COc1cccc(C=Cc2ccc3ccccc3c2)c1C(=O)O` (mixture of isomers), the CC50 at 24 h in series [4] was over 100 µM.
Take `CC(C)CCCC(C)CCCCc1cccc(O)c1C(=O)O` (stereo unspecified): the CMC in series [1] stood at 30 µM.
In the case of `COC(=O)c1c(O)cccc1CCc1ccc2ccccc2c1`, the CMC in series [1] stood at 20 µM.
`O=C1N=C(N2CCCC2)S/C1=C/c1ccc(O)cc1O` had a CMC in series [1] of over 1000 µM. Moreover, in series [2], the CC50 at 24 h was over 200 µM.
Consider `Cc1ccc(Cl)c(Nc2ccccc2C(=O)O)c1Cl`, for which, in series [3], the result was Active.
In the case of `O=C(O)c1c(O)cccc1COCCc1ccccc1`, the CC50 at 24 h in series [2] is over 200 µM.
For the molecule `Cc1cccc2c(=O)c3c(O)cc(O)cc3oc12`, in series [1], the CMC was over 1000 µM. Moreover, the CC50 at 24 h in series [2] was over 200 µM.
`CCN(CC)C(=O)c1c(CCc2ccc3ccccc3c2)cc(OC)cc1OC`: the Activity in series [5] came out at 107%; in series [6] it was 97.3%. In addition, the CC50 at 24 h came out at 85.8 µM in series [7] and 35.8 µM in series [4].
Regarding `O=C(O)c1cccnc1Nc1cccc(C(F)(F)F)c1`, in series [3], the outcome was Active.

For orientation: CC50 means the concentration that lowers cell viability or growth by half.
